In article PMC5333544, “Purification and biochemical characterization of recombinant Persicaria minor β-sesquiphellandrene synthase” (PeerJ, 2017):

Columns and labels:
[1] = target: T1, PmSTS_Δ24 (Persicaria minor, UniProt I6XZ73); assay: malachite green phosphate assay coupled to inorganic diphosphatase; type: biochemical; conditions: 20 mM HEPES pH 8.0, 10 mM MgCl2, 30 °C, 0.1 µM enzyme, 2–30 µM FPP; read-out: Km app
T1 construct: N-terminal 24 residues removed from the 562-residue protein; N-terminal His6 tag (pET28b), no cleavage told; E. coli BL21 (DE3); PCR primer codes for Met-AGFKPS start; monomer stated for the full-length enzyme
T1 sequence (I6XZ73 entry or part of it, stated change not applied): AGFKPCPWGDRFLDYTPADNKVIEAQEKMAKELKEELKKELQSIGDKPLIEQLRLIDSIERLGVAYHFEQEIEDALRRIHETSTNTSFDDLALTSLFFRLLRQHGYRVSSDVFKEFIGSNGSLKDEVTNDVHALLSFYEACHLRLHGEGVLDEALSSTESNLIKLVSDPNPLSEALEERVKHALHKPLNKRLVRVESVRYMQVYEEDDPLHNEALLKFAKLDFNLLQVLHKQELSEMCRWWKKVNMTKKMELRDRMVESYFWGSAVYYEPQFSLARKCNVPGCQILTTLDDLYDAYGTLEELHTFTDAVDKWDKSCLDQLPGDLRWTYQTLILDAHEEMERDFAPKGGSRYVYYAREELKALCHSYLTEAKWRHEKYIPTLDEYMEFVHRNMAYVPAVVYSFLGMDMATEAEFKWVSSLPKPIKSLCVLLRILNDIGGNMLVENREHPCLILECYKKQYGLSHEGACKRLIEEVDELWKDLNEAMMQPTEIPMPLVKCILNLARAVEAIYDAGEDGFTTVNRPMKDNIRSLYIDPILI

[2] = target: T2, PmSTS_Δ24 (Persicaria minor, UniProt I6XZ73, K266E, form not given); assay: GC-MS product analysis after hexane extraction; type: biochemical; conditions: overnight incubation; product beta-sesquiphellandrene
T2 construct: N-terminal 24 residues removed from the 562-residue protein; N-terminal His6 tag (pET28b), no cleavage told; E. coli BL21 (DE3); PCR primer codes for Met-AGFKPS start; monomer stated for the full-length enzyme
T2 sequence (I6XZ73 entry or part of it K266E, form open): as the sequence (I6XZ73 entry or part of it, stated change not applied) above, with K242E counted along it

Row | Structure (SMILES) | Km [1] | GC-MS product analysis after hexane extraction [2]
1 | CC(C)=CCC/C(C)=C/CC/C(C)=C/CO[P@@](=O)(O)OP(=O)(O)O (stereo in doubt) [farnesyl diphosphate] | 10.2 µM | –
2 | CC(C)=CCC/C(C)=C/CC/C(C)=C/COP(=O)(O)OP(=O)(O)O [farnesyl diphosphate] | – | mutant protein K266E produced using an E. coli expression system displayed a product profile
